Measured values reported in US9346820B2, “HIV-1 protease inhibitors having gem-di-fluoro bicyclic P2-ligands” (priority 2013, dated 2016).
Several values for one entry are separate records, joined by “and”; a condition that tells them apart may be missing. Equal entries are not always repeated. Where two headings read alike, the source gives them in different places.

How the values were obtained:
HIV-1MDR/C = assay: microbe, parasite or virus in culture; assay type: cell-based; conditions: for EC50: Human immunodeficiency virus 1, read-out: EC50 HIV-1MDR/C (X4); for fold change of EC50 HIV-1MDR/C vs HIV-1ERS104pre: number in parentheses
Procedure: (§1) All primary HIV-1 strains were passaged once or twice in 3-day-old phytohemagglutinin activated peripheral blood mononuclear cells (PHA-PBM), and the culture supernatants were stored at −80° C. until use.
(§2) The susceptibility of HIV-1LAI to various drugs was determined as previously described with minor modifications. Briefly, MT-2 cells (10^4/ml) were exposed to 100 50% tissue culture infectious doses (TCID50) of HIV-1LAI in the presence or absence of various concentrations of drugs in 96-well microculture plates and were incubated at 37° C. for 7 days. After 100 μl of the medium was removed from each well, 3-(4,5-dimetylthiazol-2-yl)-2,5-diphenyltetrazolium bromide (MTT) solution (10 μl, 7.5 mg/ml in phosphate-buffered saline) was added to each well in the plate, followed by incubation at 37° C. for 2 h. […] All assays were performed in duplicate or triplicate. […] To determine the sensitivity of primary HIV-1 isolates to drugs, phytohemagglutinin-stimulated peripheral blood mononuclear cells (PHA-PBMC) (10^6/ml) were exposed to 50 TCID50 of each primary HIV-1 isolate and cultured in the presence or absence of various concentrations of drugs in 10-fold serial dilutions in 96-well microculture plates. In determining the drug susceptibility of certain laboratory HIV-1 strains, MT-4 cells were employed as target cells as previously described with minor modifications. In brief, MT-4 cells (10^5/ml) were exposed to 100 TCID50 of drug-resistant HIV-1 strains in the presence or absence of various concentrations of drugs and were incubated at 37° C. On day 7 of culture, the supernatants were harvested and the amounts of p24 Gag protein were determined by using a fully automated chemiluminescent enzyme immunoassay system (Lumipulse F: Fujirebio Inc., Tokyo). […] All assays were performed in duplicate or triplicate. PHA-PBMs were derived from a single donor in each independent experiment. Thus, for obtaining the data, three different donors were recruited.

HIV-1MDR/MM = assay: microbe, parasite or virus in culture; assay type: cell-based; conditions: for EC50: Human immunodeficiency virus 1, read-out: EC50 HIV-1MDR/MM (R5); for fold change of EC50 HIV-1MDR/MM vs HIV-1ERS104pre: number in parentheses
Procedure: as §1, §2

HIV-1MDR/G = assay: microbe, parasite or virus in culture; assay type: cell-based; conditions: for EC50: Human immunodeficiency virus 1, read-out: EC50 HIV-1MDR/G (X4); for fold change of EC50 HIV-1MDR/G vs HIV-1ERS104pre: number in parentheses
Procedure: as §1, §2

HIV-1MDR/JSL = assay: microbe, parasite or virus in culture; assay type: cell-based; conditions: for EC50: Human immunodeficiency virus 1, read-out: EC50 HIV-1MDR/JSL (R5); for fold change of EC50 HIV-1MDR/JSL vs HIV-1ERS104pre: number in parentheses
Procedure: as §1, §2

HIV-1MDR/TM = assay: microbe, parasite or virus in culture; assay type: cell-based; conditions: for EC50: Human immunodeficiency virus 1, read-out: EC50 HIV-1MDR/TM (X4); for fold change of EC50 HIV-1MDR/TM vs HIV-1ERS104pre: number in parentheses
Procedure: as §1, §2

HIV-1NL4-3 = assay: p24 Gag production inhibition in MT-4 cells, wild-type laboratory strain; assay type: cell-based
Procedure: as §2

[1] = Partition and distribution coefficients, shake-flask method; assay type: physicochemical; conditions: for Concentration in octanol^(b): n-octanol used for logD assay; for Concentration in octanol^(a): n-octanol used for logPOW determination; for Log DOct/Tris pH 7.40: pH 7.4; for Concentration in tris buffer / Concentration in water: shake flask, 100 μM, 230 nm
Procedure: On day −1 of the experimental setting, saturation of 1-octanol (CH3 (CH2)6CH2OH) (Nacalai Tesque, Kyoto, Japan) water and tris-buffered saline (10X working solution 20 mM Tris, pH 7.4 and 0.9% NaCl, Sigma-Aldrich, St. Louis, Mo.) took place. Four different flasks were used: One containing 50 ml of water plus 100 ml of 1-octanol, the second flask contained 1-octanol saturated with water adding 50 ml of 1-octanol and 100 ml of water. The same ratios and volumes were kept for 1-octanol saturated with tris-buffer and tris-buffer saturated with 1-octanol. The flasks were sealed and placed into a room temperature bio shaker for 24 hours at 90 revolutions per minute. […] Successive dilutions were made to obtain concentrations of 10 μM, 1 μM and 0.1 μM. A standard curve was generated on a light spectrophotometer (DU Series 700, Beckman Coulter Fullerton, Calif.) at 230 nanometer absorbances.
On day 1 of the experiment, the lipid and liquid interfaces were separated, and compounds were diluted again from 20 mM DMSO to 100 μM using the 1-octanol, water and Tris-buffered saline obtained from the shake-flask assay. The resulting diluted compounds were then added to separate serum tubes containing equal proportions of 1-octanol and water, and 1-octanol and Tris-buffered saline. The solution was handshaken for 5 minutes and then centrifuged at 3,500 rpm and room temperature for 20 minutes. Finally, the compounds were recovered from the 1-octanol, Tris-buffer and water interfaces and then measured on a light spectrophotometer.
The values for logP and logD were obtained by applying the following mathematical formulas: […]
The addition of fluorine atoms is generally expected to confer greater lipophilicity on nucleoside analogs and certain compounds (37-39). […] 1-Octanol, organic alcohol, and water were used for logP determination, while tris-buffered saline (pH 7.4) and water were utilized for logD determination. Prior to obtaining the actual values, a standard curve was generated as a reference and drug concentrations attained for each compartment (1-octanol, water and tris-buffered saline) were measured on a light spectrophotometer (at 230 nanometer absorbance) as previously described by Rak et al. (40).
DRV was used as a control. N-octanol, an organic alcohol, and water were used for logP determination, while tris buffer and water were utilized for the logD assay. Prior to the retrieval of actual values a standard curve was generated as a reference. The drug concentrations for each compartment (octanol, water and tris buffer) were measured at 230 nanometer absorbances using a light spectrophotometer. Assay was performed following the OECD guidelines for testing of chemicals “Partition coefficient (n-octanol-water): shake flask method”, adopted by the council on 27 Jul. 1995.^(a) n-octanol used for logPOW determination;^(b) n-octanol used for logD assay. The formulas

HIV-1ERS104pre = assay: p24 Gag production inhibition in PHA-PBMs, wild-type clinical isolate; assay type: cell-based
Procedure: as §1, §2

HIV-1SQV^R5μM = assay: microbe, parasite or virus in culture; assay type: cell-based; conditions: for EC50: Human immunodeficiency virus 1, MT4, read-out: EC50 HIV-1SQV^R5μM; for fold change of EC50 HIV-1SQV^R5μM vs HIV-1NL4-3: number in parentheses
Procedure: as §2

HIV-1ATV^R5μM = assay: microbe, parasite or virus in culture; assay type: cell-based; conditions: for EC50: Human immunodeficiency virus 1, MT4, read-out: EC50 HIV-1ATV^R5μM; for fold change of EC50 HIV-1ATV^R5μM vs HIV-1NL4-3: number in parentheses
Procedure: as §2

HIV-1LPV^R5μM = assay: microbe, parasite or virus in culture; assay type: cell-based; conditions: for EC50: Human immunodeficiency virus 1, MT4, read-out: EC50 HIV-1LPV^R5μM; for fold change of EC50 HIV-1LPV^R5μM vs HIV-1NL4-3: number in parentheses
Procedure: as §2

HIV-1MDR/B = assay: microbe, parasite or virus in culture; assay type: cell-based; conditions: for EC50: Human immunodeficiency virus 1, read-out: EC50 HIV-1MDR/B (X4); for fold change of EC50 HIV-1MDR/B vs HIV-1ERS104pre: number in parentheses
Procedure: as §1, §2

[2] = Human immunodeficiency virus 1, MT4, read-out: EC50 HIV-1NL4-3
[3] = Human immunodeficiency virus 1, read-out: EC50 HIV-1ERS104pre (X4)
[4] = Human immunodeficiency virus 1, MT4, MT-4 cells, p24 Gag endpoint, read-out: EC50 HIV-1NL4-3
[5] = Human immunodeficiency virus 1, PHA-PBMs, p24 Gag endpoint, read-out: EC50 HIV-1ERS104pre (X4)

| Compound | EC50 (HIV-1MDR/C) | EC50 (HIV-1MDR/MM) | EC50 (HIV-1MDR/G) | EC50 (HIV-1MDR/JSL) | EC50 (HIV-1MDR/TM) | EC50 (HIV-1NL4-3; [2]) | EC50 (HIV-1ERS104pre; [3]) | EC50 (HIV-1SQV^R5μM) | EC50 (HIV-1ATV^R5μM) | EC50 (HIV-1LPV^R5μM) | fold change of EC50 HIV-1MDR/C vs HIV-1ERS104pre (HIV-1MDR/C) | fold change of EC50 HIV-1MDR/MM vs HIV-1ERS104pre (HIV-1MDR/MM) | fold change of EC50 HIV-1MDR/G vs HIV-1ERS104pre (HIV-1MDR/G) | fold change of EC50 HIV-1MDR/JSL vs HIV-1ERS104pre (HIV-1MDR/JSL) | EC50 (HIV-1MDR/B) | fold change of EC50 HIV-1MDR/B vs HIV-1ERS104pre (HIV-1MDR/B) | fold change of EC50 HIV-1MDR/TM vs HIV-1ERS104pre (HIV-1MDR/TM) | fold change of EC50 HIV-1SQV^R5μM vs HIV-1NL4-3 (HIV-1SQV^R5μM) | fold change of EC50 HIV-1ATV^R5μM vs HIV-1NL4-3 (HIV-1ATV^R5μM) | fold change of EC50 HIV-1LPV^R5μM vs HIV-1NL4-3 (HIV-1LPV^R5μM) | other results |
| --- | --- | --- | --- | --- | --- | --- | --- | --- | --- | --- | --- | --- | --- | --- | --- | --- | --- | --- | --- | --- | --- |
| CC(C)CN(C[C@@H](O)[C@H](Cc1ccccc1)NC(=O)O[C@H]1CO[C@H]2OCC[C@H]21)S(=O)(=O)c1ccc(N)cc1 [DRV, darunavir] | 5 nM | 10 nM | 14 nM | 25 nM | 30 nM | 4 nM | 4 nM | 40 nM | 50 nM | 32 nM |  |  |  |  |  |  |  |  |  |  | Log POW (Octanol/Water) ([1]; shake flask method): −0.63 |
| COc1ccc(S(=O)(=O)N(CC(C)C)C[C@@H](O)[C@H](Cc2ccccc2)NC(=O)OC2CO[C@H]3OCC(F)(F)[C@@H]23)cc1 (stereo partly shown) [GRL-04810] | 2 nM | 2 nM | 4 nM | 21 nM | 4 nM |  |  | 130 nM | 20 nM | 30 nM | 1 fold | 1 fold | 2 fold | 10 fold | 14 nM | 7 fold | 2 fold | 260 fold | 36 fold | 66 fold | EC50 (HIV-1NL4-3; [4]): 0.5 nM; Log POW (Octanol/Water) [1]: −0.14; Concentration in octanol^(b) [1]: 72 µM and 72.00 µM; Concentration in octanol^(a) [1]: 70.00 µM; Log DOct/Tris pH 7.40 [1]: −0.29; Concentration in tris buffer [1]: 42.32 µM; Concentration in water [1]: 99.78 µM; EC50 (HIV-1ERS104pre; [5]): 2.3 nM |
| COC(=O)N[C@H](C(=O)N[C@@H](Cc1ccccc1)[C@@H](O)CN(Cc1ccc(-c2ccccn2)cc1)NC(=O)[C@@H](NC(=O)OC)C(C)(C)C)C(C)(C)C [ATV, Atazanavir] | 430 nM | 81 nM | 42 nM | > 1000 nM | 56 nM | 4.7 nM | 2.1 nM | > 1000 nM | > 1000 nM | 33 nM | 204 fold | 38 fold | 19 fold | > 476 fold | 450 nM | 214 fold | 24 fold | > 250 fold | > 250 fold | 8 fold |  |
| CC(C)CN(C[C@@H](O)[C@H](Cc1ccccc1)NC(=O)O[C@H]1CO[C@H]2OCC(F)(F)[C@H]21)S(=O)(=O)c1ccc(N)cc1 [GRL-05010] | 2 nM | 3 nM | 4 nM | 20 nM | 4 nM |  |  | 46 nM | 40 nM | 30 nM | 1 fold | 1 fold | 1 fold | 7 fold | 11 nM | 3 fold | 2 fold | 13 fold | 12 fold | 8 fold | EC50 (HIV-1NL4-3; [4]): 3.7 nM; Log POW (Octanol/Water) [1]: −0.83; Concentration in octanol^(b) [1]: 14.09 µM; Concentration in octanol^(a) [1]: 18.70 µM; Log DOct/Tris pH 7.40 [1]: −1.01; Concentration in tris buffer [1]: 49.84 µM; Concentration in water [1]: 94.55 µM; EC50 (HIV-1ERS104pre; [5]): 2.7 nM |
| CC(C)(C)NC(=O)[C@@H]1C[C@@H]2CCCC[C@@H]2CN1C[C@@H](O)[C@H](Cc1ccccc1)NC(=O)[C@H](CC(N)=O)NC(=O)c1ccc2ccccc2n1 [SQV, Saquinavir] | 310 nM | 110 nM | 39 nM | 530 nM | 100 nM | 37 nM | 3.9 nM | > 1000 nM | 460 nM | 25 nM | 78 fold | 27 fold | 10 fold | 133 fold | 350 nM | 90 fold | 25 fold | > 25 fold | 12 fold | 1 fold |  |
